The values that follow come from patent publication US20220402901A1 (Bial - R&D Investments, S.A., priority 2019, published 2022).

Series [1] can be described thus: Compound solubility in water. Type of series: physicochemical. The following applies: read-out: Solubility in H2O.
The target of series [2] is T1, Human acid ceramidase (hACR) (Homo sapiens, UniProt Q13510).
T1 construct: expressed in transfected cells; lysates of cells overexpressing acid ceramidase
T1 sequence (Q13510 22-395): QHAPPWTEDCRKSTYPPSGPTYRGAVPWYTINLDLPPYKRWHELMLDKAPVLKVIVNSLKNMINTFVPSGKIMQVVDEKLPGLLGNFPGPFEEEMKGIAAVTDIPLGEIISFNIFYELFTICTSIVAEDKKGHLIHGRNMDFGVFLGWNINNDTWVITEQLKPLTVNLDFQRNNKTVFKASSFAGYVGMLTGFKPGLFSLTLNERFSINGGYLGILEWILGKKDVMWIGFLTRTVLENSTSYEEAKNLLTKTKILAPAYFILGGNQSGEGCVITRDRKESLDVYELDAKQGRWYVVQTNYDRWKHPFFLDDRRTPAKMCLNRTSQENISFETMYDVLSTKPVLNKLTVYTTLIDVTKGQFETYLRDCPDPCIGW
The series is described as follows: Acid ceramidase biochemical fluorescent assay (cell lysates overexpressing acid ceramidase, substrate Rbm14-12). The following applies: 10 μg lysate protein, 1 hr preincubation at RT, pH 4.5, Rbm14-12 6.3 μM. The procedure:
The ability of exemplary compounds to inhibit acid ceramidase was measured.
Cell lysates overexpressing acid ceramidase were used as the enzyme source for compound potency determination in a biochemical fluorescent assay. Briefly, compounds were preincubated with 10 μg protein of cell lysates in a dose-response manner for 1 hr at RT in the assay buffer containing 25 mM NaAC and 100 mM NaCl, pH 4.5. The reaction was initiated by the addition of substrate Rbm14-12 at a final concentration of 6.3 μM. The reaction was run at RT for 1 hr before it was stopped by the addition of the stopping buffer containing 20% methanol (v/v), 1 mg/ml NaIO4, 0.1 M glycine, pH 10.6. The samples were incubated with the stopping buffer at RT for 1 hr to allow the fluorescent product to be formed. Finally the plate was read with SpectraMax i3 plate reader (Molecular Devices) at ex360 nm and em446 nm. Data were collected and used to determine the IC50 values of compounds by curve fitting to the four-parameter inhibition equation.
The symbol “A” indicates inhibition of less than 0.2 μM; the symbol “B” indicates inhibition in the range of 0.2 μM up to 1 μM; and the symbol “C” indicates inhibition of greater than 1 μM.

≈ marks a conversion by molar mass, not a printed value.

As a reminder, the solubility is the concentration that dissolves in the medium under given conditions. By IC50 is commonly meant the midpoint of a concentration-inhibition curve. `Cn1c(=O)oc2cc(N3CCN(C(=O)NCCCCc4ccccc4)CC3)ccc21` [Example 46, 4-(3-Methyl-2-oxo-1,3-benzoxazol-6-yl)-N-(4-phenylbutyl)piperazine-1-carboxamide]: in series [1], the solubility stood at 6 µM (≈ 2.45 µg/mL). For the same molecule, in series [2], the IC50 was 200 to 1000 nM.
For `Cn1c(=O)oc2cc(C3CNCCN3C(=O)NCCCCc3ccccc3)ccc21` (stereo not shown) [Example 39, 2-(3-Methyl-2-oxo-1,3-benzoxazol-6-yl)-N-(4-phenylbutyl)piperazine-1-carboxamide], in that order: 241 µM (≈ 98.4 µg/mL) and above 1000 nM.
The matching figures for `CN1CCN(C(=O)NCCCCc2ccccc2)C(c2ccc3c(c2)oc(=O)n3C)C1` (stereo not shown) [Example 40, 4-Methyl-2-(3-methyl-2-oxo-1,3-benzoxazol-6-yl)-N-(4-phenylbutyl)piperazine-1-carboxamide]: 224 µM (≈ 94.6 µg/mL) and above 1000 nM.
For `Cn1c(=O)oc2cc(C3CCN(C(=O)NCCCc4ccccc4)C(C)(C)C3)ccc21` (stereo not shown) [Example 26, 2,2-Dimethyl-4-(3-methyl-2-oxo-1,3-benzoxazol-6-yl)-N-(3-phenylpropyl)piperidine-1-carboxamide], in that order: 5.8 µM (≈ 2.44 µg/mL) and below 200 nM.
For `Cn1c(=O)oc2cc(C3CCN(C(=O)NCCc4ccccc4)C(C)(C)C3)ccc21` (stereo not shown) [Example 25, 2,2-Dimethyl-4-(3-methyl-2-oxo-1,3-benzoxazol-6-yl)-N-(2-phenylethyl)piperidine-1-carboxamide], the solubility in series [1] stood at 26 µM (≈ 10.6 µg/mL). Besides, the IC50 in series [2] is below 200 nM.
In the case of `C[C@@H]1CN(c2ccc3c(c2)oc(=O)n3C)CCN1C(=O)NCCCCc1ccccc1` [Example 48, (2R)-2-Methyl-4-(3-methyl-2-oxo-1,3-benzoxazol-6-yl)-N-(4-phenylbutyl)piperazine-1-carboxamide], the solubility in series [1] came to 4.3 µM (≈ 1.82 µg/mL). The IC50 in series [2] was 200 to 1000 nM.
For `Cn1c(=O)oc2cc(C3COCC(C)(C)N3C(=O)NCCCCc3ccccc3)ccc21` (stereo not shown) [Example 42, 3,3-Dimethyl-5-(3-methyl-2-oxo-1,3-benzoxazol-6-yl)-N-(4-phenylbutyl) morpholine-4-carboxamide], in that order: 14.8 µM (≈ 6.48 µg/mL) and below 200 nM.
For `Cn1c(=O)oc2cc(C3CCCCN3C(=O)NCCCCc3ccccc3)ccc21` (stereo not shown) [Example 37, 2-(3-Methyl-2-oxo-1,3-benzoxazol-6-yl)-N-(4-phenylbutyl)piperidine-1-carboxamide], in that order: 30 µM (≈ 12.2 µg/mL) and above 1000 nM.
The matching figures for `Cn1c(=O)oc2cc(C3CCCN(C(=O)NCCCCc4ccccc4)C3)ccc21` (stereo not shown) [Example 12, 3-(3-Methyl-2-oxo-1,3-benzoxazol-6-yl)-N-(4-phenylbutyl)piperidine-1-carboxamide]: 8 µM (≈ 3.26 µg/mL) and above 1000 nM.
As to `Cn1c(=O)oc2cc(N3CCN(C(=O)NCCCCc4ccccc4)C(C)(C)C3=O)ccc21` [Example 64, 2,2-Dimethyl-4-(3-methyl-2-oxo-1,3-benzoxazol-6-yl)-3-oxo-N-(4-phenylbutyl)piperazine-1-carboxamide], the solubility in series [1] was determined as 6.8 µM (≈ 3.06 µg/mL). In addition, the IC50 in series [2] was below 200 nM.
The matching figures for `O=C(NCCCCc1ccccc1)N1CCC(c2ccc3[nH]c(=O)oc3c2)CC1` [Example 1, 4-(2-Oxo-3H-1,3-benzoxazol-6-yl)-N-(4-phenylbutyl)piperidine-1-carboxamide]: 2.4 µM (≈ 0.944 µg/mL) and 200 to 1000 nM.
For `Cn1c(=O)oc2cc(N3CC(C)(C)N(C(=O)NCCCCc4ccccc4)CC3=O)ccc21` [Example 65, 2,2-Dimethyl-4-(3-methyl-2-oxo-1,3-benzoxazol-6-yl)-5-oxo-N-(4-phenylbutyl)piperazine-1-carboxamide], in that order: 18.9 µM (≈ 8.52 µg/mL) and below 200 nM.
For `CN1CCN(C(=O)NCCCCc2ccccc2)CC1c1ccc2c(c1)oc(=O)n2C` (stereo not shown) [Example 41, 4-Methyl-3-(3-methyl-2-oxo-1,3-benzoxazol-6-yl)-N-(4-phenylbutyl)piperazine-1-carboxamide], in that order: 135 µM (≈ 57 µg/mL) and above 1000 nM.
For the molecule `CCCCCNC(=O)N1CCN(c2ccc3c(c2)oc(=O)n3C)CC1(C)C` [Example 54, 2,2-Dimethyl-4-(3-methyl-2-oxo-1,3-benzoxazol-6-yl)-N-pentyl-piperazine-1-carboxamide], the solubility in series [1] turned out to be 2.4 µM (≈ 0.899 µg/mL). The IC50 in series [2] is 200 to 1000 nM.
The matching figures for `CC(C)CNC(=O)N1CCC(c2ccc3c(c2)oc(=O)n3C)CC1` [Example 3, N-iso-Butyl 4-(3-methyl-2-oxo-1,3-benzoxazol-6-yl)piperidine-1-carboxamide]: 126 µM (≈ 41.8 µg/mL) and above 1000 nM.
Turning to `C[C@H]1CC(c2ccc3c(c2)oc(=O)n3C)CCN1C(=O)NCCc1ccccc1` (stereo partly drawn) [Example 21, (2S)-Methyl-4-(3-methyl-2-oxo-1,3-benzoxazol-6-yl)-N-(2-phenylethyl)piperidine-carboxamide], in series [1], the solubility was determined as 56 µM (≈ 22 µg/mL). This molecule had an IC50 in series [2] of 200 to 1000 nM.
Turning to `Cn1c(=O)oc2cc(C3CC4CCC(C3)N4C(=O)NCCCCc3ccccc3)ccc21` (stereo not shown) [Example 33, 3-(3-Methyl-2-oxo-1,3-benzoxazol-6-yl)-N-(4-phenylbutyl)-8-azabicyclo[3.2.1]octane-8-carboxamide], in series [1], the solubility was found to be 3.2 µM (≈ 1.39 µg/mL). The same molecule returned an IC50 in series [2] below 200 nM.
